Laboratory results as given in article PMC3961306, “Comparison of the Cancer Gene Targeting and Biochemical Selectivities of All Targeted Kinase Inhibitors Approved for Clinical Use” (PLoS ONE, 2014).

Legend:
Test in all cases: Kinase profiling in a biochemical assay panel (mobility shift assays and ELISA), %-inhibition at 1 μM; selectivity entropy
[1] = biological target: panel of more than 300 wild-type and mutant kinases (313 kinase panel) (Homo sapiens, UniProt O75582); settings: kinase MSK1; 1 μM
[2] = biological target: panel of more than 300 wild-type and mutant kinases (313 kinase panel) (Homo sapiens, UniProt P42684); settings: kinase ARG; 1 μM compound
[3] = biological target: panel of more than 300 wild-type and mutant kinases (313 kinase panel) (Homo sapiens, UniProt Q9NYY3); settings: kinase PLK2; 1 μM
[4] = biological target: panel of more than 300 wild-type and mutant kinases (313 kinase panel) (Homo sapiens, UniProt P57059); settings: kinase SIK; 1 μM
[5] = biological target: T1, panel of more than 300 wild-type and mutant kinases (313 kinase panel) (Homo sapiens, UniProt Q8TF76); settings: kinase Haspin; compound at 1 μM
T1 sequence (Q8TF76 1-798): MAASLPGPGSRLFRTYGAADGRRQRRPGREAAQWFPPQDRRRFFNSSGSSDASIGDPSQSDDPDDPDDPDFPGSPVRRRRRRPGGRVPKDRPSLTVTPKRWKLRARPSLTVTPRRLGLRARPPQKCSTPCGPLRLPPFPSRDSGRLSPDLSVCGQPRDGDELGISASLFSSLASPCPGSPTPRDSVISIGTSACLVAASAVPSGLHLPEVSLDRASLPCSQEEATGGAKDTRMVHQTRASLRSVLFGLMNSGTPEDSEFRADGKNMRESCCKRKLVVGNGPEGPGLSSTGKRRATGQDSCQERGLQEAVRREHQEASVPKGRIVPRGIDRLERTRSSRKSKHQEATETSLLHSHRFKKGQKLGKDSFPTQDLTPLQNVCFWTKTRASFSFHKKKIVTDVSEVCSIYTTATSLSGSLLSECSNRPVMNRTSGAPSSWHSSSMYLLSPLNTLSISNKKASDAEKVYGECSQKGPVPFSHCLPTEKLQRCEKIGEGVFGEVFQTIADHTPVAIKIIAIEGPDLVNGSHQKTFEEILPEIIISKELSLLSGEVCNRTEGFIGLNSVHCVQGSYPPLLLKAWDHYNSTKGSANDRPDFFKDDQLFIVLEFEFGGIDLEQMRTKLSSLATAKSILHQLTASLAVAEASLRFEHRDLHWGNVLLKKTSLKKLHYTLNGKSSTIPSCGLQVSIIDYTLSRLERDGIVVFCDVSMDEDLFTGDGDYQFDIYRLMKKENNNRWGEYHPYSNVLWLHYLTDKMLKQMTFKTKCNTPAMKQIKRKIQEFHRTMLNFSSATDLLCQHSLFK

[6] = biological target: panel of more than 300 wild-type and mutant kinases (313 kinase panel) (Homo sapiens, UniProt P78368); settings: kinase CK1γ2; 1 μM compound
[7] = biological target: T2, panel of more than 300 wild-type and mutant kinases (313 kinase panel) (Homo sapiens, UniProt Q12852); settings: kinase DLK; compound at 1 μM
T2 sequence (Q12852 1-859): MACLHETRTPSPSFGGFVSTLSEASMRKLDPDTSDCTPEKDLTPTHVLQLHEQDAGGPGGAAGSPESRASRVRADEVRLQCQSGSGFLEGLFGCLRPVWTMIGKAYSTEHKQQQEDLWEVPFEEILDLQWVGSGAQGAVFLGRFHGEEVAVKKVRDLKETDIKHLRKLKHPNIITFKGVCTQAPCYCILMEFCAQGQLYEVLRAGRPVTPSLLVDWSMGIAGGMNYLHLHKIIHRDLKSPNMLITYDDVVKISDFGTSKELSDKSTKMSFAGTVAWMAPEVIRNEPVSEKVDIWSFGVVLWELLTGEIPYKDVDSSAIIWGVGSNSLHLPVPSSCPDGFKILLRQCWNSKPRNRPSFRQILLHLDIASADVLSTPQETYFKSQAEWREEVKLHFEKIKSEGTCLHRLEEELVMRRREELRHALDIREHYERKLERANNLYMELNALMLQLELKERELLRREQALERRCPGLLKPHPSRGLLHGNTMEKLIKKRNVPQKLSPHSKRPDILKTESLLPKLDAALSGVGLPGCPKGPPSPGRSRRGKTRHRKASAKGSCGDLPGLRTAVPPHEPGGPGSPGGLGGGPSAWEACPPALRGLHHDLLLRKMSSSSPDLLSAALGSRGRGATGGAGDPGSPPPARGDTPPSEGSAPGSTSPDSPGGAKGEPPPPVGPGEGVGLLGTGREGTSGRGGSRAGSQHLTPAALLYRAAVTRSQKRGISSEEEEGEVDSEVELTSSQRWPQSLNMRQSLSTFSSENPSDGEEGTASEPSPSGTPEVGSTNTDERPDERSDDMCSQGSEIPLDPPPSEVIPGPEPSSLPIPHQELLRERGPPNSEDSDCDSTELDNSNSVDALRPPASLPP

[8] = biological target: T3, panel of more than 300 wild-type and mutant kinases (313 kinase panel) (Homo sapiens, UniProt Q96PF2); settings: kinase TSSK2; 1 μM
T3 sequence (Q96PF2 1-358): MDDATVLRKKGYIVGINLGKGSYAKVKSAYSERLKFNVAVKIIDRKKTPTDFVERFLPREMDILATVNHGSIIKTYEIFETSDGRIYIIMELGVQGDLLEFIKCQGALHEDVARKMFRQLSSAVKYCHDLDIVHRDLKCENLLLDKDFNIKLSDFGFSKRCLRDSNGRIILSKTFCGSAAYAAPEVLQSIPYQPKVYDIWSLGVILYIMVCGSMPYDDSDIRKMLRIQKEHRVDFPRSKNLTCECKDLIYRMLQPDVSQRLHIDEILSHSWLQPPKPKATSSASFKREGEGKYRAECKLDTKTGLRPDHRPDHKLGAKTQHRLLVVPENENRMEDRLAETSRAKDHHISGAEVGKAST

[9] = biological target: panel of more than 300 wild-type and mutant kinases (313 kinase panel) (Homo sapiens, UniProt P29597); settings: kinase TYK2; compound at 1 μM
Sequence of panel of more than 300 wild-type and mutant kinases (313 kinase panel) (Homo sapiens, UniProt P29597) (P29597 whole entry, change not shown): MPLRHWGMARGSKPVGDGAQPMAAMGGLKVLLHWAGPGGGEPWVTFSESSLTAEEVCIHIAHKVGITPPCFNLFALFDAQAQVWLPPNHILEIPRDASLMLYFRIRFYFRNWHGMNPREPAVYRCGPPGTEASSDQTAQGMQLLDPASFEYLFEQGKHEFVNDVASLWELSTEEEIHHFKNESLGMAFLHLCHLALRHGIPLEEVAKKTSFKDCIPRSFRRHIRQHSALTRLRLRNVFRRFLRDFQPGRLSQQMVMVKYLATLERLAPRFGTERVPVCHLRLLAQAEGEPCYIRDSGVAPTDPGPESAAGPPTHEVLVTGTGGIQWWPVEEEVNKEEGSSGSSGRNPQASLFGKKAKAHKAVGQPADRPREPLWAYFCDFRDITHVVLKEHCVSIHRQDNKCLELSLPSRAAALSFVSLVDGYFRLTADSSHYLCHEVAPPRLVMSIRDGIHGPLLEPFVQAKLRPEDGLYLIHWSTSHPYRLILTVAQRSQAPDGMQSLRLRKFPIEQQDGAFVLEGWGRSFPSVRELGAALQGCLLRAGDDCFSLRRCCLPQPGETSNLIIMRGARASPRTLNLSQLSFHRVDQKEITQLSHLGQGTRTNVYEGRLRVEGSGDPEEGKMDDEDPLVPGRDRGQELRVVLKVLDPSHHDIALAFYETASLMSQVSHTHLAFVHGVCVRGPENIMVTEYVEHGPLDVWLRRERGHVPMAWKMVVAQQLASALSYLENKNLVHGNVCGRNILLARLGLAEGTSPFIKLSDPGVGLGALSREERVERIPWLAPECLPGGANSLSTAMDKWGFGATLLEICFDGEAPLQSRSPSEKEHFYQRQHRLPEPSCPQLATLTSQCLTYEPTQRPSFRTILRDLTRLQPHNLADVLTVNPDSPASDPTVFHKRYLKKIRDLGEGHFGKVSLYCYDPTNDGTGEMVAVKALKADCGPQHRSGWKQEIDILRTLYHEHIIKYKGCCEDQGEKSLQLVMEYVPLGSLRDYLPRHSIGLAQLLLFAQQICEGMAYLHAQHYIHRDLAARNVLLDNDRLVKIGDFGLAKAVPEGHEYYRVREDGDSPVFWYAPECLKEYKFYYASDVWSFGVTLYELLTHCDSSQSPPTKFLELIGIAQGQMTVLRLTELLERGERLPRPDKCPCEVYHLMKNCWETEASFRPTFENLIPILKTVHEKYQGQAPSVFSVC

Row | Compound | %-inhibition of MSK1 [1] [%] | %-inhibition, ARG [2] [%] | %-inhibition of PLK2 [3] [%] | %-inhibition of SIK [4] [%] | %-inhibition of Haspin [5] [%] | %-inhibition, CK1γ2 [6] [%] | %-inhibition of DLK [7] [%] | %-inhibition of TSSK2 [8] [%] | %-inhibition of TYK2 [9] [%]
1 | CNC(=O)c1cc(Oc2ccc(NC(=O)Nc3ccc(Cl)c(C(F)(F)F)c3)c(F)c2)ccn1 [regorafenib] | 1 | 35 | -3.23 | 0.674 | -8 | -3 | -13 | -11 | -3.68
2 | CO[C@H]1C[C@@H]2CC[C@@H](C)[C@@](O)(O2)C(=O)C(=O)N2CCCC[C@H]2C(=O)O[C@H]([C@H](C)C[C@@H]2CC[C@@H](OC(=O)C(C)(CO)CO)[C@H](OC)C2)CC(=O)[C@H](C)/C=C(\C)[C@@H](O)[C@@H](OC)C(=O)[C@H](C)C[C@H](C)/C=C/C=C/C=C/1C [temsirolimus] | 0 | -1.55 | 0.568 | -5.28 | 3 | -3.32 | -6 | -0.179 | -6.58
3 | CC(=O)Nc1cccc(-n2c(=O)n(C3CC3)c(=O)c3c(Nc4ccc(I)cc4F)n(C)c(=O)c(C)c32)c1 [trametinib] | -0.531 | -4 | -1.65 | -3 | 5 | -2.15 | -2.85 | -1.73 | 2.16
4 | COc1cc2c(Nc3ccc(Br)cc3F)ncnc2cc1OCC1CCN(C)CC1 [vandetanib] | -0.384 | 94 | -3 | 70 | -3.76 | -2 | 20 | -9 | -7
5 | CCCS(=O)(=O)Nc1ccc(F)c(C(=O)c2c[nH]c3ncc(-c4ccc(Cl)cc4)cc23)c1F [vemurafenib] | 0.256 | 7 | -1.85 | 24 | -3 | 0.506 | 8 | -11 | 6
